Data taken from PubChem BioAssay (NCI).
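Interpolation was linear, between the two tested concentrations surrounding the appropriate level; five concentrations were tested over 48 hours in 96-well plates. Abbreviation: GI50, concentration required for 50% inhibition of growth. TGI marks complete inhibition of growth.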

What was measured:
Experiment in all cases: NCI-60 cell line screen, 48 h
MCF7 breast = test system: MCF7 breast
786-0 renal = test system: 786-0 renal
KM12 colon = test system: KM12 colon
HOP-92 NSCLC = test system: HOP-92 NSCLC
RXF 393 renal = test system: RXF 393 renal
NCI-H460 lung = test system: NCI-H460 lung
UO-31 renal = test system: UO-31 renal
TK-10 renal = test system: TK-10 renal
U251 CNS = test system: U251 CNS
UACC-257 melanoma = test system: UACC-257 melanoma
DU-145 prostate = test system: DU-145 prostate
OVCAR-4 ovarian = test system: OVCAR-4 ovarian
CAKI-1 renal = test system: CAKI-1 renal
EKVX NSCLC = test system: EKVX NSCLC
OVCAR-5 ovarian = test system: OVCAR-5 ovarian
HL-60(TB) leukemia = test system: HL-60(TB) leukemia
NCI-H226 lung = test system: NCI-H226 lung
HT29 colon = test system: HT29 colon
SK-MEL-2 melanoma = test system: SK-MEL-2 melanoma
T-47D breast = test system: T-47D breast
MDA-MB-231 breast = test system: MDA-MB-231 breast
PC-3 prostate = test system: PC-3 prostate
NCI-H522 lung = test system: NCI-H522 lung
HCC-2998 colon = test system: HCC-2998 colon
SW-620 colon = test system: SW-620 colon
SN12C renal = test system: SN12C renal
A498 renal = test system: A498 renal
A549 NSCLC = test system: A549 NSCLC
HOP-62 NSCLC = test system: HOP-62 NSCLC
IGROV1 ovarian = test system: IGROV1 ovarian
HS 578T breast = test system: HS 578T breast
UACC-62 melanoma = test system: UACC-62 melanoma
OVCAR-3 ovarian = test system: OVCAR-3 ovarian
LOX IMVI melanoma = test system: LOX IMVI melanoma
MOLT-4 leukemia = test system: MOLT-4 leukemia
BT-549 breast = test system: BT-549 breast
SNB-19 CNS = test system: SNB-19 CNS
SK-MEL-28 melanoma = test system: SK-MEL-28 melanoma
COLO 205 colon = test system: COLO 205 colon
SF-539 CNS = test system: SF-539 CNS
M14 melanoma = test system: M14 melanoma
NCI-H23 lung = test system: NCI-H23 lung
MALME-3M melanoma = test system: MALME-3M melanoma
SNB-75 CNS = test system: SNB-75 CNS
MDA-MB-435 = test system: MDA-MB-435
SF-268 CNS = test system: SF-268 CNS
SK-MEL-5 melanoma = test system: SK-MEL-5 melanoma
SF-295 CNS = test system: SF-295 CNS
ACHN renal = test system: ACHN renal
HCT-15 colon = test system: HCT-15 colon
HCT-116 colon = test system: HCT-116 colon

With COc1ccc2nc(NCCCNCCO)c3sc4ccc(F)cc4c(=O)c3c2c1 the GI50 (MCF7 breast) was 1.79 µM, the TGI (MCF7 breast) was 3.53 µM and the GI50 (786-0 renal) was 1.38 µM. It also gave a TGI (786-0 renal) of 2.82 µM, a GI50 (KM12 colon) of 1.81 µM and a TGI (KM12 colon) of 3.52 µM. For the same molecule, the GI50 (HOP-92 NSCLC) was 1.1 µM, the TGI (HOP-92 NSCLC) was 2.45 µM and the GI50 (RXF 393 renal) was 1.26 µM. The TGI (RXF 393 renal) was 2.61 µM, the GI50 (NCI-H460 lung) was 1.53 µM and the TGI (NCI-H460 lung) was 3.02 µM. For the same molecule, the GI50 (UO-31 renal) was 1.46 µM, the TGI (UO-31 renal) was 2.8 µM and the GI50 (TK-10 renal) was 1.72 µM. For the same molecule, the TGI (TK-10 renal) was 3.3 µM, the GI50 (U251 CNS) was 1.62 µM and the TGI (U251 CNS) was 3.38 µM. For the same molecule, the GI50 (UACC-257 melanoma) was 1.89 µM, the TGI (UACC-257 melanoma) was 4.04 µM and the GI50 (DU-145 prostate) was 1.6 µM. It also gave a TGI (DU-145 prostate) of 3.04 µM, a GI50 (OVCAR-4 ovarian) of 1.76 µM and a TGI (OVCAR-4 ovarian) of 3.43 µM. For the same molecule, the GI50 (CAKI-1 renal) was 1.58 µM, the TGI (CAKI-1 renal) was 2.98 µM and the GI50 (EKVX NSCLC) was 1.45 µM. It also gave a TGI (EKVX NSCLC) of 2.94 µM, a GI50 (OVCAR-5 ovarian) of 1.5 µM and a TGI (OVCAR-5 ovarian) of 2.87 µM. For the same molecule, the GI50 (HL-60(TB) leukemia) was 1.92 µM, the TGI (HL-60(TB) leukemia) was 3.87 µM and the GI50 (NCI-H226 lung) was 1.74 µM. The TGI (NCI-H226 lung) was 3.49 µM, the GI50 (HT29 colon) was 1.58 µM and the TGI (HT29 colon) was 3.23 µM. The GI50 (SK-MEL-2 melanoma) was 1.92 µM, the TGI (SK-MEL-2 melanoma) was 3.95 µM and the GI50 (T-47D breast) was 1.68 µM. For the same molecule, the TGI (T-47D breast) was 3.93 µM, the GI50 (MDA-MB-231 breast) was 1.43 µM and the TGI (MDA-MB-231 breast) was 2.84 µM. It also gave a GI50 (PC-3 prostate) of 1.56 µM, a TGI (PC-3 prostate) of 3.04 µM and a GI50 (NCI-H522 lung) of 1.77 µM. For the same molecule, the TGI (NCI-H522 lung) was 3.55 µM, the GI50 (HCC-2998 colon) was 1.76 µM and the TGI (HCC-2998 colon) was 3.61 µM. It also gave a GI50 (SW-620 colon) of 1.53 µM, a TGI (SW-620 colon) of 3.04 µM and a GI50 (SN12C renal) of 1.56 µM. The TGI (SN12C renal) was 3.03 µM, the GI50 (A498 renal) was 1.53 µM and the TGI (A498 renal) was 2.98 µM. It also gave a GI50 (A549 NSCLC) of 1.6 µM, a TGI (A549 NSCLC) of 3.64 µM and a GI50 (HOP-62 NSCLC) of 1.62 µM. The TGI (HOP-62 NSCLC) was 3.26 µM, the GI50 (IGROV1 ovarian) was 1.25 µM and the TGI (IGROV1 ovarian) was 2.63 µM. For the same molecule, the GI50 (HS 578T breast) was 1.6 µM, the TGI (HS 578T breast) was 3.57 µM and the GI50 (UACC-62 melanoma) was 1.76 µM. It also gave a TGI (UACC-62 melanoma) of 3.29 µM, a GI50 (OVCAR-3 ovarian) of 1.8 µM and a TGI (OVCAR-3 ovarian) of 3.38 µM. The GI50 (LOX IMVI melanoma) was 1.48 µM, the TGI (LOX IMVI melanoma) was 2.9 µM and the GI50 (MOLT-4 leukemia) was 1.85 µM. For the same molecule, the TGI (MOLT-4 leukemia) was 3.97 µM, the GI50 (BT-549 breast) was 12.8 µM and the TGI (BT-549 breast) was 31.7 µM. For the same molecule, the GI50 (SNB-19 CNS) was 1.7 µM, the TGI (SNB-19 CNS) was 3.2 µM and the GI50 (SK-MEL-28 melanoma) was 1.78 µM. It also gave a TGI (SK-MEL-28 melanoma) of 3.21 µM, a GI50 (COLO 205 colon) of 1.8 µM and a TGI (COLO 205 colon) of 3.77 µM. It also gave a GI50 (SF-539 CNS) of 1.71 µM, a TGI (SF-539 CNS) of 3.18 µM and a GI50 (M14 melanoma) of 1.85 µM. The TGI (M14 melanoma) was 3.48 µM, the GI50 (NCI-H23 lung) was 1.73 µM and the TGI (NCI-H23 lung) was 3.27 µM. The GI50 (MALME-3M melanoma) was 1.69 µM, the TGI (MALME-3M melanoma) was 3.23 µM and the GI50 (SNB-75 CNS) was 1.55 µM. The TGI (SNB-75 CNS) was 3.05 µM, the GI50 (MDA-MB-435) was 1.66 µM and the TGI (MDA-MB-435) was 3.1 µM. The GI50 (SF-268 CNS) was 1.45 µM, the TGI (SF-268 CNS) was 3.15 µM and the GI50 (SK-MEL-5 melanoma) was 1.73 µM. For the same molecule, the TGI (SK-MEL-5 melanoma) was 3.14 µM, the GI50 (SF-295 CNS) was 1.73 µM and the TGI (SF-295 CNS) was 3.22 µM. The GI50 (ACHN renal) was 1.63 µM, the TGI (ACHN renal) was 2.99 µM and the GI50 (HCT-15 colon) was 1.28 µM. The TGI (HCT-15 colon) was 2.64 µM, the GI50 (HCT-116 colon) was 1.47 µM and the TGI (HCT-116 colon) was 2.86 µM.
